Experimental data reported in patent US11214803B2, “Modulators of YAP1 expression” (Ionis Pharmaceuticals, Inc., priority 2019, dated 2022).
Strand notation (5' to 3'): a small letter for the sugar, then the base; units joined by * are phosphorothioate-linked, units joined directly phosphodiester-linked; [ ] holds rarer units or linkages, { } end groups; capitals alone tell only the bases. k = constrained ethyl (cEt); [5mC] = 5-methylcytosine; d = 2'-deoxy (DNA)

Tests used:
[1] = Tolerability in Balb/c mice, body and organ weights (Example 11); format: in vivo; conditions: 50 mg/kg subcutaneously twice a week for four weeks, end of study
Procedure: (§1) Groups of male Balb/c mice at 4-6 weeks of age (obtained from Taconic) were injected subcutaneously twice a week for four weeks (for a total of 8 treatments) with 50 mg/kg of modified oligonucleotides. One group of male Balb/c mice was injected with PBS. Mice were euthanized on day 26 post start of treatment (24 hours following the final administration).
(§2) Body weights of Balb/c mice were measured at the end of the study, and the average body weight for each group is presented in the table below. Modified oligonucleotides that caused any changes in organ weights outside the expected range for modified oligonucleotides were excluded from further studies.

[2] = Tolerability in Balb/c mice, plasma chemistry markers (Example 11); format: in vivo; conditions: 50 mg/kg subcutaneously twice a week for four weeks
Procedure: (§3) Balb/c mice were treated with modified oligonucleotides selected from studies described above and evaluated for changes in the levels of various plasma chemistry markers.
as §1

[3] = tested on: Yap1 mRNA; assay: Dose-dependent inhibition of human Yap1 in A-431 cells (Example 6, 5,000 cells per well, RTS4814); format: cell-based; conditions: for % UTC 148 nM / % UTC 444 nM / % UTC 1333 nM / % UTC 4000 nM: approximately 48 hours; for Yap1 mRNA, % UTC: 48 hours
Procedure, shortened: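 A-431 cells (5,000/well) took up oligonucleotides by free uptake at various doses for about 48 h. Yap1 mRNA was measured by RT-PCR (RTS4814), normalised to RIBOGREEN total RNA and expressed as % untreated control; IC50 by linear regression on a log/linear plot.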

[4] = tested on: Yap1 mRNA; assay: Dose-dependent inhibition of human Yap1 in A-431 cells (Example 7, 10,000 cells per well, RTS36584); format: cell-based; conditions: free uptake
Procedure, shortened: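 Yap1 mRNA was expressed as percent of untreated control after normalization to total RNA (RIBOGREEN), and IC50 was derived by log/linear linear regression. The read-out used primer-probe set RTS36584 roughly 48 hours after free-uptake dosing of oligonucleotides into A-431 cells (10,000 cells/well).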

[5] = Tolerability in Balb/c mice, plasma chemistry markers (Example 12); format: in vivo; conditions: 50 mg/kg subcutaneously twice a week for four weeks
Procedure: as §3
as §1, with “6-7” for “4-6”

[6] = Tolerability in Balb/c mice, body and organ weights (Example 12); format: in vivo; conditions: male Balb/c mice, 50 mg/kg s.c. twice a week for four weeks (8 treatments), end of study (day 26)
Procedure: as §1, with “6-7” for “4-6”
as §2

[7] = tested on: Yap1 mRNA; assay: Dose-dependent inhibition of human Yap1 in SNU-449 cells (Example 9, RTS36584); format: cell-based; conditions: free uptake; for % UTC (Yap1 mRNA): approximately 48 hours
Procedure, shortened: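 Read-out was Yap1 mRNA (primer-probe RTS36584) normalised to total RNA by RIBOGREEN, given as % of untreated cells, with IC50 fitted by linear regression of log/linear data. Oligonucleotides were dosed by free uptake to SNU-449 cells, 10,000/well, for ~48 h.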

[8] = Table 54, A-431 cells, Yap1 mRNA, linear regression on a log/linear plot
[9] = Table 54, A-431 cells, free uptake, 148 nM, RTS4814
[10] = Table 54, A-431 cells, free uptake, 444 nM, RTS4814
[11] = Table 54, A-431 cells, free uptake, 1333 nM, RTS4814
[12] = Table 54, A-431 cells, free uptake, 4000 nM, RTS4814
[13] = Table 55, 148 nM, free uptake, A-431 cells 5,000 cells per well, RTS4814
[14] = Table 55, 444 nM, free uptake, A-431 cells 5,000 cells per well, RTS4814
[15] = Table 55, 1333 nM, free uptake, A-431 cells 5,000 cells per well, RTS4814
[16] = Table 55, 4000 nM, free uptake, A-431 cells 5,000 cells per well, RTS4814
[17] = Table 55, A-431 cells 5,000 cells per well, free uptake, RTS4814
[18] = 15.6 nM, A-431 cells, 10,000 cells per well, approximately 48 hours
[19] = 62.5 nM, A-431 cells, 10,000 cells per well, approximately 48 hours
[20] = 4000.00 nM, A-431 cells, 10,000 cells per well, approximately 48 hours
[21] = A-431 cells, approximately 48 hours, linear regression on log/linear plot
[22] = Table 61, 15.6 nM, A-431 cells 10,000 cells per well, 48 hours
[23] = Table 61, 62.5 nM, A-431 cells 10,000 cells per well, 48 hours
[24] = Table 61, 4000.00 nM, A-431 cells 10,000 cells per well, 48 hours
[25] = Table 61, A-431 cells 10,000 cells per well

Substance	Kidney weight [1]	Liver weight [1]	Spleen weight [1]	body weight [1]	ALT [2]	AST [2]	BUN [2]	TBIL [2]	ALT [5]	AST [5]	BUN [5]	TBIL [5]	Kidney weight [6]	Liver weight [6]	Spleen weight [6]	body weight [6]	also measured
716424 (antisense kG*k[5mC]*kA*dA*dT*dG*dG*dA*d[5mC]*dA*dA*dG*dG*kA*kA*kG) [compound 716424]	0.36 g	2.08 g	0.15 g	23 g	2077 U/L	1422 U/L	20 mg/dL	0.22 mg/dL									IC50 [3, 8]: 2 µM; % UTC 148 nM [3, 9]: 76 % UTC; % UTC 444 nM [3, 10]: 69 % UTC; % UTC 1333 nM [3, 11]: 51 % UTC; % UTC 4000 nM [3, 12]: 44 % UTC
716513 (antisense kA*kA*kT*d[5mC]*dT*dT*dA*dA*dT*d[5mC]*dT*dG*dT*kG*kG*k[5mC]) [compound 716513]	0.41 g	1.59 g	0.18 g	25 g	325 U/L	229 U/L	17 mg/dL	0.14 mg/dL									Yap1 mRNA, % UTC [3, 13]: 82 % UTC; Yap1 mRNA, % UTC [3, 14]: 73 % UTC; Yap1 mRNA, % UTC [3, 15]: 39 % UTC; Yap1 mRNA, % UTC [3, 16]: 39 % UTC; IC50 [3, 17]: 1.4 µM
958590 (kA*kG*kG*dT*dA*dT*dA*dA*d[5mC]*dT*dG*dG*dG*k[5mC]*kA*kA) [compound 958590]									374 U/L	360 U/L	25 mg/dL	0.16 mg/dL	0.40 g	1.76 g	0.13 g	25 g	Yap1 mRNA, % UTC [4, 18]: 71 % UTC; Yap1 mRNA, % UTC [4, 19]: 33 % UTC; Yap1 mRNA, % UTC [4, 20]: 4 % UTC; IC50 [4, 21]: 0.03 µM; % UTC (Yap1 mRNA) ([7]; 31.3 nM): 69 % UTC; % UTC (Yap1 mRNA) ([7]; 125.0 nM): 52 % UTC; % UTC (Yap1 mRNA) ([7]; 500.0 nM): 29 % UTC; % UTC (Yap1 mRNA) ([7]; 2000.00 nM): 12 % UTC; IC50 ([7]; linear regression on a log/linear plot): 0.1 µM
716502 (antisense k[5mC]*kA*k[5mC]*dA*dG*dT*dG*dA*dT*dT*dG*d[5mC]*dA*kT*kT*kT) [compound 716502]	0.42 g	2.18 g	0.10 g	23 g	2920 U/L	1329 U/L	17 mg/dL	0.27 mg/dL									IC50 [3, 8]: 0.8 µM; % UTC 148 nM [3, 9]: 73 % UTC; % UTC 444 nM [3, 10]: 57 % UTC; % UTC 1333 nM [3, 11]: 45 % UTC; % UTC 4000 nM [3, 12]: 30 % UTC
716455 (antisense kG*kT*kT*dA*dT*dG*dT*dT*dT*dG*dG*dG*dT*kG*kT*kG) [compound 716455]	0.32 g	2.66 g	0.14 g	21 g	1089 U/L	1193 U/L	22 mg/dL	0.25 mg/dL									Yap1 mRNA, % UTC [3, 13]: 95 % UTC; Yap1 mRNA, % UTC [3, 14]: 70 % UTC; Yap1 mRNA, % UTC [3, 15]: 49 % UTC; Yap1 mRNA, % UTC [3, 16]: 25 % UTC; IC50 [3, 17]: 1.2 µM
958509 (kA*kT*kG*dT*dT*dA*dT*dG*dT*dT*dT*dG*dG*kG*kT*kG; antisense) [compound 958509]									1483 U/L	1627 U/L	26 mg/dL	0.31 mg/dL	0.27 g	1.50 g	0.13 g	20 g	Yap1 mRNA, % UTC [4, 22]: 66 % UTC; Yap1 mRNA, % UTC [4, 23]: 37 % UTC; Yap1 mRNA, % UTC [4, 24]: 7 % UTC; IC50 [4, 25]: 0.03 µM
958721 (kG*kT*kA*dG*dT*dA*dT*dA*dA*dT*dG*dA*dG*kT*kT*kA; antisense) [compound 958721]									57 U/L	114 U/L	28 mg/dL	0.17 mg/dL	0.33 g	1.45 g	0.12 g	24 g	Yap1 mRNA, % UTC ([4]; Table 56, 15.6 nM, A-431 cells 10,000 cells per well, 48 hours): 72 % UTC; Yap1 mRNA, % UTC ([4]; Table 56, 62.5 nM, A-431 cells 10,000 cells per well, 48 hours): 32 % UTC; Yap1 mRNA, % UTC ([4]; Table 56, 4000.00 nM, A-431 cells 10,000 cells per well, 48 hours): 3 % UTC; IC50 ([4]; Table 56, A-431 cells 10,000 cells per well): 0.03 µM
958603 (kT*kG*kG*dT*dA*dT*dG*dA*dA*dT*dT*d[5mC]*dT*kG*kA*kA; antisense) [compound 958603]									1103 U/L	927 U/L	27 mg/dL	0.35 mg/dL	0.36 g	1.80 g	0.20 g	21 g	Yap1 mRNA, % UTC ([4]; Table 59, 15.6 nM, A-431 cells 10,000 cells per well, 48 hours): 70 % UTC; Yap1 mRNA, % UTC ([4]; Table 59, 62.5 nM, A-431 cells 10,000 cells per well, 48 hours): 27 % UTC; Yap1 mRNA, % UTC ([4]; Table 59, 4000.00 nM, A-431 cells 10,000 cells per well, 48 hours): 4 % UTC; IC50 ([4]; Table 59, A-431 cells 10,000 cells per well): 0.03 µM
958540 (kA*kT*kT*d[5mC]*dT*dA*dT*d[5mC]*d[5mC]*dA*dG*dG*dG*kT*k[5mC]*kA; antisense) [compound 958540]									4127 U/L	3940 U/L	25 mg/dL	0.44 mg/dL	0.33 g	1.53 g	0.09 g	19 g	Yap1 mRNA, % UTC [4, 18]: 62 % UTC; Yap1 mRNA, % UTC [4, 19]: 28 % UTC; Yap1 mRNA, % UTC [4, 20]: 8 % UTC; IC50 [4, 21]: 0.02 µM
958454 (antisense kG*kG*kA*dA*dT*dG*dA*dG*d[5mC]*dT*d[5mC]*dG*dA*kA*k[5mC]*kA) [compound 958454]									1183 U/L	2162 U/L	45 mg/dL	6.53 mg/dL	0.25 g	0.68 g	0.03 g	14 g	Yap1 mRNA, % UTC [4, 22]: 72 % UTC; Yap1 mRNA, % UTC [4, 23]: 40 % UTC; Yap1 mRNA, % UTC [4, 24]: 4 % UTC; IC50 [4, 25]: 0.04 µM
958725 (kG*kT*k[5mC]*dA*dG*dT*dT*dA*dT*d[5mC]*d[5mC]*dT*dA*kT*k[5mC]*k[5mC]; antisense) [compound 958725]									3758 U/L	3758 U/L	31 mg/dL	0.91 mg/dL	0.21 g	1.23 g	0.04 g	15 g	Yap1 mRNA, % UTC [4, 18]: 65 % UTC; Yap1 mRNA, % UTC [4, 19]: 36 % UTC; Yap1 mRNA, % UTC [4, 20]: 1 % UTC; IC50 [4, 21]: 0.03 µM
